# Reference: patent publication US10864212B2, “Compositions and methods for treating retinal degradation” (University of Kentucky Research Foundation, priority 2013, dated 2020)
# “Also recorded” adds a separate entry of the source.
# Key:
# [1] = system: GFP-expressing lentivirus; test: Replication of a GFP-expressing lentivirus in HeLa cells; format: cell-based; conditions: HeLa cells; FIG. 22
# Text: The present disclosure further provides the results of additional experiments in FIG. 21-FIG. 23.
# Caspase-1 = test: Western blot of Caspase-1 activation in primary mouse RPE cells transfected with Alu RNA; format: cell-based; conditions: FIG. 44
# [2] = system: graft-versus-host disease; test: Graft-versus-host disease model, mice receiving allogeneic bone marrow and T cells; format: in vivo, mouse; conditions: saline treated controls 0%
# Text: (§1) To explore the potential therapeutic relevance of NRTIs beyond the Alu-induced model of geographic atrophy (GA), it was hypothesized that if NRTIs function as generic inflammasome inhibitors, then they might be broadly useful in other animal models of disease that are also driven by P2X7.
# neutrophil migration = test: NLRP3- and P2X7-driven model of sterile inflammation (liver injury); format: in vivo
# Text: as §1
# IL-1 beta = test: LPS/ATP-induced IL-1 beta activation in primary mouse bone marrow-derived macrophages (Western blot); format: cell-based; conditions: FIG. 39
# Text: To determine whether LPS/ATP-induced inflammasome activation can be inhibited without RT inhibition, the present inventors utilized thymidine kinase-deficient (Raji/TK^−) and -expressing (Raji/TK^+) cells (Balzarini et al., 1989). After addition of AZT, […], but not TK^− cells, the present inventors produced AZT-triphosphate (AZT-TP), the AZT metabolite required for RT inhibition (FIG. 40; FIG. 46, FIG. 47, FIG. 48, FIG. 49, FIG. 50).
# FIGS. 38-41 illustrate that NRTIs block LPS/ATP-induced inflammasome activation. […] Representative images of n=3-4 experiments are provided in each of FIGS. 38-41.
# IL-1 beta mRNA = test: IL-1beta priming (mRNA) induced by Alu RNA in primary human RPE cells; format: cell-based; conditions: Alu RNA transfection, 24 hours, d4T 100 uM, FIG. 14
# Method: FIG. 14 illustrates, in graph format, that Alu RNA transfection increases IL-1 beta mRNA levels in primary human RPE cells at 24 hours, an event termed “priming”, (Y-axis) compared to mock (transfection reagent alone).
# FIG. 14 illustrates that Alu RNA transfection increases IL-1 beta mRNA levels in primary human RPE cells at 24 hours, an event termed “priming”, (Y-axis) compared to mock (transfection reagent alone).
smiles,measurement,setting,value
"Cc1cn([C@H]2C=C[C@@H](CO)O2)c(=O)[nH]c1=O [d4T, 2′3′ dideoxythymidine]",Replication of a GFP-expressing lentivirus,[1],blocks replication of a GFP-expressing lentivirus
same,Caspase 1 cleavage to its active 20 kDa form,Caspase-1,prevents Caspase 1 cleavage to its active 20 kDa form
same,Survival,[2],30-70%
same,Neutrophil migration to the focus of liver injury,neutrophil migration,reduced neutrophil migration to the focus of liver injury
same,"IL-1 beta activation / secretion of mature IL-1 beta, LPS/ATP",IL-1 beta,blocks secretion of mature IL-1 beta; also recorded: blocked IL-1 beta
same,"IL-1 beta mRNA levels (priming), normalized to 18S RNA",IL-1 beta mRNA,blunted
